Here are results for seven compounds from article PMC11259710, “Distinct roles of the major binding residues in the cation-binding pocket of the melibiose transporter MelB” (The Journal of Biological Chemistry, 2024).

For data set [1], the target named is Asp59 (UniProt position 59, WDAINDPIMGW). The experiment in a line: ITC. As to conditions: cited from earlier work.
The target in data set [2] is T1, WT MelBSt (Salmonella typhimurium, UniProt P30878).
T1 construct: His10 (C); made in house; host or cells: E. coli DW2
The note with it: cited from earlier work.

Data set [3] deals with T1, WT MelBSt. Description: ITC ligand-binding assay, purified WT MelBSt. Also noted: species or system Salmonella enterica serovar Typhimurium. As to conditions: for Kd: ITC, read-out: Kd of melibiose binding. Here is the method: All ITC ligand-binding assays were performed with the TA Instruments (Nano-ITC device) as described ([15]), which yields the exothermic binding as a positive peak. In a typical experiment, the titrand (MelBSt) placed in the ITC Sample Cell was titrated with the specified titrant Na^+, Li^+, melibiose, or α-NPG (placed in the Syringe) in the assay buffer by an incremental injection of 2-μL aliquots at an interval of 300 s at a constant stirring rate of 250 rpm (nano-ITC). MelBSt protein samples were buffer-matched to the assay buffer by dialysis. For measuring Na^+ or Li^+ binding, 100 mM choline chloride was supplemented into the Na^+-free buffer.
(§1) All samples were degassed using a TA Instruments Degassing Station (model 6326) for 15 min. During the titration, the heat changes were collected at 25 °C, and data processing was performed with the NanoAnalyze (version 3.7.5 software) provided with the instrument. The normalized heat changes were subtracted from the heat of dilution elicited by the last few injections, where no further binding occurred, and the corrected heat changes were plotted against the mole ratio of titrant versus titrand. The binding association constant (Ka) values were obtained by fitting the data using the one-site independent-binding model included in the NanoAnalyze software (version 3.7.5).

Data set [4] concerns the target T2, D55C MelBSt mutant (Salmonella typhimurium, UniProt P30878, D55C).
T2 construct: His10 (C); made in house; host or cells: E. coli DW2
The class given is binding, Salmonella enterica serovar Typhimurium. As to conditions: for Kd: ITC 25 °C; for Cation binding by ITC: 40 mM NaCl or LiCl titrant, absence or presence of saturating melibiose. On the procedure:
All ITC ligand-binding assays were performed with the TA Instruments (Nano-ITC device) as described ([15]), which yields the exothermic binding as a positive peak. […] MelBSt protein samples were buffer-matched to the assay buffer by dialysis.
as §1

Data set [5] deals with WT MelBSt expressed in E. coli DW2 cells. The experiment in a line: [3H]melibiose transport assay in intact E. coli DW2 cells, CCCP effect, WT MelBSt. Format: cell-based, Salmonella enterica serovar Typhimurium. Here is the method:
(§2) E. coli DW2 cells transformed with a given plasmid were grown in Luria-Bertani (LB) broth with 100 mg/L ampicillin in a 37 °C shaker. The overnight cultures were diluted by 5% to fresh LB broth with 0.5% glycerol and 100 mg/L ampicillin and shaken at 30 °C for 5 h. The cells were washed with 50-ml 100 mM KPi, pH 7.5 three times, followed by washing with the assay buffer (100 mM KPi, pH 7.5, 10 mM MgSO4). The cell pellets were resuspended and adjusted to A420 = 10 (∼0.7 mg proteins/ml) with the assay buffer. The transport assay was performed at 0.4 mM [^3H]melibiose (specific activity of 10 mCi/mmol) in the absence of Na^+ and Li^+ or the presence of Na^+ or Li^+ as described ([4], [35]) to test the three transport model coupling to H^+, Na^+, or Li^+, respectively. The transport time courses were carried out by quenching the cells at zero, 5 s, 10 s, 30 s, 1 m, 2 m, 5 m, 10 m, and 30 m by dilution and fast filtration. The filters were subjected to radioactivity measurements using a liquid scintillation counter.
(§3) The CCCP effect on the transport activity at varied pH conditions in the absence of Na^+ and Li^+ was conducted by incubating the extensively washed Na^+-free, Li^+-free cells with 10 μM CCCP for 10 min prior to the transport assay.
(§4) E. coli DW2 cells expressing the WT MelBSt, D55C, or D59C mutants were prepared as described above. […]

The subject of data set [6] is D55C MelBSt expressed in E. coli DW2 cells. The experiment in a line: [3H]melibiose transport assay in intact E. coli DW2 cells, CCCP effect, D55C MelBSt. As to conditions: D55C mutant. The class given is cell-based, Salmonella enterica serovar Typhimurium. On the procedure:
as §2, §3, §4

The mark [7] stands for this setting: pH 7.5, 100 mM Na+ vs no Na+, from Kd values of ref [8].
Setting [8] is: 10 μM CCCP, all tested external pH conditions, zero, 2 m, 10 m.
[9] abbreviates: cells pre-incubated with 10 μM CCCP, 0.4 mM melibiose, no Na+ and Li+, pH 7.5.

Read-outs that look alike come from different tables or passages of the source.

In the case of “Melibiose permease MelB (MelBSt) (Salmonella enterica serovar Typhimurium)”, the pKa result in data set [1] (Melibiose present (per the Introduction). The Discussion sentence does not specify the sugar state.) is recorded as “approximately 6.5”; in data set [1] (No melibiose, no Na+/Li+ bound), 6.25.
As to `[H+]` [H^+], the “absolute dissociation constant for H+ (pKa value)” value in data set [2] (absence of melibiose, ref [15]) is 6.25; in data set [2] (presence of melibiose, ref [15]), 6.5. Further, the Kd in data set [2] (absence of melibiose, ref [15], read-out: absolute KD(H+)) was 0.56 µM; in data set [2] (presence of melibiose, ref [15], read-out: absolute KD(H+)), 0.26 µM. Besides, the Cooperativity number entry in data set [2] (melibiose and H+, based on the effect of sugar on the H+ affinity, ref [15]) was “less than 2”.
Turning to `O=[N+]([O-])c1ccc(O[C@H]2O[C@H](CO)[C@H](O)[C@H](O)[C@H]2O)cc1` [α-NPG, 4-nitrophenyl-α-D-galactopyranoside], in data set [3] (setting [7]), the “Affinity change of α-NPG with Na+” value is listed as “+ 1.68-fold”. Also, the dissociation constant (Kd) in data set [4] (pH 7.5, 100 mM Na+, read-out: Kd of α-NPG binding) was 13.5 ± 1.38 µM; in data set [4] (pH 7.5, no Na+, read-out: Kd of α-NPG binding), 15.1 ± 1.86 µM; in data set [2] (WT MelBSt, pH 7.5, 100 mM Na+, ITC, ref [8], read-out: Kd of α-NPG binding) it was 25.7 ± 4.42 µM; in data set [2] (WT MelBSt, pH 7.5, no Na+, ITC, ref [8], read-out: Kd of α-NPG binding), 43.2 ± 0.62 µM.
In the case of `[Li+]` [Li^+], the “Cation binding by ITC” value in data set [4] is reported as “eliminated the binding”. The “Cooperativity number (ratio of Kd values of melibiose and cation in absence or presence of the other)” value in data set [2] (melibiose and Li+, ref [6]) is recorded as about 5.
Take `N#CC(C#N)=NNc1cccc(Cl)c1` [CCCP, carbonyl cyanide m-chlorophenylhydrazone]: the “CCCP effect on melibiose transport at varied external pH” value in data set [5] (setting [8]) and in data set [6] (setting [8]) was “completely abolished” in each case. Further, the “CCCP effect on H+-coupled melibiose transport activity” value in data set [5] (setting [9]) and in data set [6] (setting [9]) was “completely inhibited” throughout.
Regarding `OC[C@H]1O[C@H](OCC2O[C@@H](O)[C@H](O)[C@@H](O)[C@@H]2O)[C@H](O)[C@@H](O)[C@H]1O` (stereo partly drawn) [Melibiose, melibiose], the Kd in data set [3] (pH 6.25, Na+-free buffer) was 6190 ± 590 µM; in data set [3] (pH 8.5, Na+-free buffer), 8500 ± 210 µM; in data set [4] (pH 7.5, 100 mM Na+, read-out: Kd of melibiose binding), 5090 ± 150 µM; in data set [4] (pH 7.5, no Na+, read-out: Kd of melibiose binding), 5820 ± 460 µM; in data set [2] (WT MelBSt, pH 7.5, 100 mM Na+, ITC 25 °C, ref [8], read-out: Kd of melibiose binding) it was 1090 ± 60 µM; in data set [2] (WT MelBSt, pH 7.5, no Na+, ITC 25 °C, ref [8], read-out: Kd of melibiose binding), 9280 ± 230 µM. The “Affinity change of melibiose with pH” value in data set [3] (pH 6.25 vs pH 8.5, no Na+) is given as “+1.37-fold”. Further, the “Affinity change of melibiose with Na+” value is recorded as “+8.51-fold” in data set [3] (setting [7]); 8.51 fold in data set [3] (pH 7.5, 100 mM Na+ vs no Na+, from Kd values of ref [8], listed as melibiose); “+1.14-fold” in data set [4] (pH 7.5, 100 mM Na+ vs no Na+).
`[Na+]` [Na^+]: in data set [4], the “Cation binding by ITC” value is “eliminated the binding”. Besides, the “Cooperativity number (ratio of Kd values of melibiose and cation in absence or presence of the other)” value in data set [2] (melibiose and Na+, ref [15]) is on record as “approximately 8”.
